{"source": "patent US20230118152A1", "about": "“FORMS OF 5-({[2-AMINO-3-(4-CARBAMOYL-2,6-DIMETHYL-PHENYL)-PROPIONYL]-[1-(4-PHENYL-1H-IMIDAZOL-2-YL)-ETHYL]-AMINO}-METHYL)-2-METHOXY-BENZOIC ACID” (Allergan Holdings Unlimited Company, priority 2020, published 2023)", "test": "Slurry experiments in water (physical form stability)", "assay_type": "physicochemical", "description": "Form H3 may be formed by slurrying Form A in water. Form H3 may convert back to Form A with some minor amorphous contents within some time, and completely convert to amorphous phase upon further slurrying within further time.\nForm H3 was prepared by slurry of Form A in water upon stirring. Form H3 converted back to Form A with some minor amorphous content within 2 days, and completely converted to amorphous phase upon slurry within 8 days. After additional 7 days (i.e. day 15 of slurry experiments), the amorphous phase converted further to Form D (tetrahydrate) with high crystallinity.", "data": [{"smiles": "COc1ccc(CN(C(=O)C(N)Cc2c(C)cc(C(N)=O)cc2C)C(C)c2nc(-c3ccccc3)c[nH]2)cc1C(=O)O", "note": "(stereo not drawn) [Form H3, 5-({[2-amino-3-(4-carbamoyl-2,6-dimethyl-phenyl)-propionyl]-[1-(4-phenyl-1H-imidazol-2-yl)-ethyl]-amino}-methyl)-2-methoxy-benzoic acid]", "values": [{"measurement": "time for complete conversion to amorphous phase", "setting": "slurry in water upon stirring", "result": "≤ 8", "unit": "days"}, {"measurement": "time for conversion back to Form A with some minor amorphous content", "setting": "slurry in water upon stirring", "result": "≤ 2", "unit": "days"}]}, {"smiles": "COc1ccc(CN(C(=O)C(N)Cc2c(C)cc(C(N)=O)cc2C)C(C)c2nc(-c3ccccc3)c[nH]2)cc1C(=O)O", "note": "(stereo not drawn) [Form A, 5-({[2-Amino-3-(4-carbamoyl-2,6-dimethyl-phenyl)-propionyl]-[1-(4-phenyl-1H-imidazol-2-yl)-ethyl]-amino}-methyl)-2-methoxy-benzoic acid]", "values": [{"measurement": "solid form conversion when suspended in water", "setting": "suspended in water, trihydrate form (H3) and tetrahydrate (Form D)", "result": "converts to hydrated crystalline forms"}]}]}
